According to ChEMBL document CHEMBL4371067, “Discovery of N-substituted 7-azaindoles as Pan-PIM kinases inhibitors - Lead optimization - Part III” (Bioorg Med Chem Lett, 2019):
pEC50, pIC50, pKi: −log10 of the molar value. ≈ marks a conversion by molar mass, not a printed value. Calls of active or inactive are those of the source. The calls are words filed in the database; no cut-off is given here.

Tests used:
[1] = molecular target: Serine/threonine-protein kinase pim-1 (Homo sapiens, UniProt P11309); assay: Inhibition of PIM1 (unknown origin) assessed as reduction in BAD phosphorylation at Ser-112 residue by TR-FRET assay
[2] = molecular target: Serine/threonine-protein kinase pim-2 (Homo sapiens, UniProt Q9P1W9); assay: Inhibition of PIM2 (unknown origin) assessed as reduction in BAD phosphorylation at Ser-112 residue by TR-FRET assay
[3] = Thermodynamic solubility in pH 7.4 solution; assay type: physicochemical; details: buffer; for solubility thermodynamic: read-out: Therm_solubility
[4] = molecular target: Serine/threonine-protein kinase PIM (Homo sapiens, UniProt P11309+Q9P1W9+Q86V86); assay: Inhibition of PIM in human KG1 cells assessed as reduction in pS6 level; assay type: cell-based
KG-1 [5] = assay: Antiproliferative activity against human KG1 cells; assay type: functional, cell-based
[6] = Permeability in human Caco2/TC7 cells at 5 uM; assay type: ADME, cell-based; details: for Papp at 5 µM: Caco-2, read-out: permeability
[7] = Clearance in human liver microsomes assessed as drug extraction at 5 uM; assay type: ADME, Microsome; details: for hepatic extraction ratio at 5 µM: liver microsomes, read-out: CLH
[8] = Clearance in mouse liver microsomes assessed as drug extraction at 5 uM; assay type: ADME, Microsome
[9] = AUC (0 to infinity) in rat at 3 mg/kg, iv administered as single dose; assay type: ADME, organism-based; set-up: dose 3 mg/kg, route intravenous, time infinity; details: in vivo
[10] = AUC (0 to infinity) in rat at 10 mg/kg, po administered as single dose; assay type: ADME, organism-based; set-up: dose 10 mg/kg, route oral, time infinity; details: in vivo
[11] = Cmax in rat at 10 mg/kg, po administered as single dose; assay type: ADME, organism-based; set-up: dose 10 mg/kg, route oral; details: in vivo
[12] = Half life in rat at 3 mg/kg, iv administered as single dose; assay type: ADME, organism-based; details: in vivo
[13] = Half life in rat at 10 mg/kg, po administered as single dose; assay type: ADME, organism-based; details: in vivo
[14] = Oral bioavailability in rat at 10 mg/kg administered as single dose; assay type: ADME, organism-based; details: in vivo
[15] = Clearance in rat at 3 mg/kg, iv administered as single dose; assay type: ADME, organism-based; details: in vivo
[16] = Volume of distribution at steady state in rat at 3 mg/kg, iv administered as single dose; assay type: ADME, organism-based; details: in vivo, read-out: Vdss
[17] = Efflux ratio of permeability in human Caco2/TC7 cells at 5 uM; assay type: ADME, cell-based; details: Caco-2
hERG (KCNH2) [18] = molecular target: T1, hERG (KCNH2) (Homo sapiens, UniProt Q12809); assay: Inhibition of human ERG at 10 uM relative to control
hERG (KCNH2) [19] = molecular target: T1, hERG (KCNH2); assay: Inhibition of human ERG at 1 uM relative to control
Mus musculus [20] = assay: In vivo inhibition of PIM in mouse xenografted with human KG1 cells assessed as reduction in phosphorylated BAD level at 25 mg/kg, po administered as single dose and measured up to 24 hrs post dose relative to control; assay type: functional
[21] = molecular target: Voltage-gated inwardly rectifying potassium channel KCNH2 (Homo sapiens, UniProt Q12809); assay: Inhibition of human ERG
[22] = molecular target: Glycogen synthase kinase-3 beta (Homo sapiens) (UniProt P49841); assay: Inhibition of GSK3beta (unknown origin) at 0.1 uM relative to control
[23] = molecular target: Cyclin-dependent kinase 5 (Homo sapiens) (UniProt Q00535); assay: Inhibition of CDK5 (unknown origin) at 0.1 uM relative to control
[24] = molecular target: Glycogen synthase kinase-3 alpha (Homo sapiens) (UniProt P49840); assay: Inhibition of GSK3alpha (unknown origin) at 0.1 uM relative to control
[25] = molecular target: Cyclin-dependent kinase 3 (Homo sapiens) (UniProt Q00526); assay: Inhibition of CDK3 (unknown origin) at 0.1 uM relative to control
[26] = molecular target: Cyclin-dependent kinase 2 (Homo sapiens) (UniProt P24941); assay: Inhibition of CDK2 (unknown origin) at 0.1 uM relative to control
[27] = molecular target: T2, Dual specificity tyrosine-phosphorylation-regulated kinase 3 (Homo sapiens) (UniProt O43781); assay: Inhibition of DYRK3 (unknown origin) at 0.1 uM relative to control
T2 sequence (whole entry): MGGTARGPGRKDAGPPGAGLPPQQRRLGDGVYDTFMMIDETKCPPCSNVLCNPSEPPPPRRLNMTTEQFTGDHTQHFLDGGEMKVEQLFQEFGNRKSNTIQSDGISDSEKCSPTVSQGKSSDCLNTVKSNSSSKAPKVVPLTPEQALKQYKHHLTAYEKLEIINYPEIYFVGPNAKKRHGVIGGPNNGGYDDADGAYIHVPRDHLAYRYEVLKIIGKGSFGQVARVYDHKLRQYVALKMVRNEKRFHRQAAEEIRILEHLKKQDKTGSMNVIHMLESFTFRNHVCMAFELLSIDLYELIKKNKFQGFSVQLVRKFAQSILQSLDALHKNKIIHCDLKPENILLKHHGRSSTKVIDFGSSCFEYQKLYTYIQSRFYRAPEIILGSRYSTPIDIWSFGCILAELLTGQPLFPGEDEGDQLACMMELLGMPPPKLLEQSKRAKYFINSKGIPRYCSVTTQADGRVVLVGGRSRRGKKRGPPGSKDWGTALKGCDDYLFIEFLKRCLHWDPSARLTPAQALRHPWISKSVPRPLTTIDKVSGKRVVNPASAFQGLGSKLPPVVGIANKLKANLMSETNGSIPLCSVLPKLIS

[28] = molecular target: Ribosomal protein S6 kinase alpha-2 (Homo sapiens) (UniProt Q15349); assay: Inhibition of RSK3 (unknown origin) at 0.1 uM relative to control
[29] = molecular target: Cyclin-dependent kinase 1 (Homo sapiens) (UniProt P06493); assay: Inhibition of CDK1 (unknown origin) at 0.1 uM relative to control
[30] = molecular target: Glycogen synthase kinase-3 beta (Homo sapiens) (UniProt P49841); assay: Inhibition of GSK3beta (unknown origin) at 1 uM relative to control
[31] = molecular target: Cyclin-dependent kinase 5 (Homo sapiens) (UniProt Q00535); assay: Inhibition of CDK5 (unknown origin) at 1 uM relative to control
[32] = molecular target: Glycogen synthase kinase-3 alpha (Homo sapiens) (UniProt P49840); assay: Inhibition of GSK3alpha (unknown origin) at 1 uM relative to control
[33] = molecular target: Cyclin-dependent kinase 3 (Homo sapiens) (UniProt Q00526); assay: Inhibition of CDK3 (unknown origin) at 1 uM relative to control
[34] = molecular target: Cyclin-dependent kinase 2 (Homo sapiens) (UniProt P24941); assay: Inhibition of CDK2 (unknown origin) at 1 uM relative to control
[35] = molecular target: T2, Dual specificity tyrosine-phosphorylation-regulated kinase 3 (Homo sapiens); assay: Inhibition of DYRK3 (unknown origin) at 1 uM relative to control
[36] = molecular target: Ribosomal protein S6 kinase alpha-2 (Homo sapiens) (UniProt Q15349); assay: Inhibition of RSK3 (unknown origin) at 1 uM relative to control
[37] = molecular target: Cyclin-dependent kinase 1 (Homo sapiens) (UniProt P06493); assay: Inhibition of CDK1 (unknown origin) at 1 uM relative to control
Mus musculus [38] = assay: In vivo inhibition of PIM in mouse xenografted with human KG1 cells assessed as reduction in phosphorylated BAD level at 25 mg/kg, po administered as single dose and measured at 8 hrs post dose relative to control; assay type: functional; details: KG-1, po
[39] = Drug uptake in tumor of mouse xenografted with human KG1 cells at 25 mg/kg, po administered as single dose and measured at 8 hrs post dose; assay type: ADME, organism-based, Neoplasm; details: read-out: Drug uptake
[40] = Drug uptake in tumor of mouse xenografted with human KG1 cells at 25 mg/kg, po administered as single dose and measured at 24 hrs post dose; assay type: ADME, organism-based, Neoplasm; details: read-out: Drug uptake
[41] = Plasma concentration in mouse xenografted with human KG1 cells at 25 mg/kg, po administered as single dose and measured at 8 hrs post dose; assay type: ADME, organism-based
[42] = Plasma concentration in mouse xenografted with human KG1 cells at 25 mg/kg, po administered as single dose and measured at 24 hrs post dose; assay type: ADME, organism-based
[43] = Protein binding in mouse plasma; assay type: ADME, cell-free; details: read-out: PPB (converted)
[44] = Toxicity in nude mouse xenografted with human KG1 cells assessed as body weight loss at 12.5 to 50 mg/kg, po bid for 18 days relative to control; assay type: organism-based; details: in vivo, 432 h
KG-1 [45] = assay: Antitumor activity against human KG1 cells xenografted in nude mouse assessed as tumor growth at 12.5 mg/kg, po bid for 18 days relative to control; assay type: functional
KG-1 [46] = assay: Antitumor activity against human KG1 cells xenografted in nude mouse assessed as tumor growth at 25 mg/kg, po bid for 18 days relative to control; assay type: functional
KG-1 [47] = assay: Antitumor activity against human KG1 cells xenografted in nude mouse assessed as tumor growth at 50 mg/kg, po bid for 18 days relative to control; assay type: functional
[48] = Cmax in nude mouse xenografted with human KG1 cells at 12.5 mg/kg, po bid for 18 days measured at 8 hrs post last dose; assay type: ADME, organism-based; set-up: dose 12.5 mg/kg, route oral; details: in vivo
[49] = Cmax in nude mouse xenografted with human KG1 cells at 25 mg/kg, po bid for 18 days measured at 8 hrs post last dose; assay type: ADME, organism-based; set-up: dose 25 mg/kg, route oral; details: in vivo
[50] = Cmax in nude mouse xenografted with human KG1 cells at 50 mg/kg, po bid for 18 days measured at 8 hrs post last dose; assay type: ADME, organism-based; set-up: dose 50 mg/kg, route oral; details: in vivo

NC(=O)c1cc(Cl)c2c(Cl)c(C#CC3CCCO3)n([C@H]3CCCNC3)c2n1 (stereo in doubt; 20b)
pIC50 [1]: 8.66
pKi [1]: 8.89
pIC50 [2]: 8.13
Therm_solubility [3]: 333 µM
EC50 [4]: 69 nM
pEC50 (KG-1 [5]; kg-1): 7.04
permeability ([6]; caco2/tc7, 5 µM, 5 µM): 33 ×10⁻⁷ cm/s
CLH ([7]; microsomes, 5 µM): 24%
CLH ([8]; microsomes, 5 µM): 37%
AUC(0-inf) [9]: 324 ng·h/mL
AUC(0-inf) [10]: 326 ng·h/mL
Cmax [11]: 54 ng/mL
half-life [12]: 2.32 h
half-life [13]: 3.63 h
bioavailability [14]: 30%
clearance [15]: 150 mL/min/kg
Vd [16]: 19.6 L/kg

NC(=O)c1cc(Cl)c2c(Cl)c(C#CC3CC3)n([C@H]3CCCNC3)c2n1
pIC50 [1]: 9.15
pIC50 [2]: 8.05
solubility thermodynamic [3]: 13 µM (≈ 4.9 µg/mL)
EC50 [4]: 28 nM
pEC50 (KG-1 [5]; Homo sapiens, KG-1): 6.68
Papp at 5 µM [6]: 3 ×10⁻⁶ cm/s
efflux ratio at 5 µM [17]: 2.5
inhibition at 10 µM (hERG (KCNH2) [18]): 97%
inhibition at 1 µM (hERG (KCNH2) [19]): 53%
hepatic extraction ratio at 5 µM [7]: 0.21
inhibition (Mus musculus [20]): Active

COCCC#Cc1c(Cl)c2c(Cl)cc(C(N)=O)nc2n1[C@H]1CCCNC1
pIC50 [1]: 9.10
pKi [1]: 9.40
pIC50 [2]: 8.29
solubility thermodynamic [3]: 86 µM (≈ 34 µg/mL)
pIC50 [21]: 5.52
EC50 [4]: 27 nM
pEC50 (KG-1 [5]; Homo sapiens, KG-1): 7.41
Papp at 5 µM [6]: 4.1 ×10⁻⁶ cm/s
hepatic extraction ratio at 5 µM [7]: 0.23
hepatic extraction ratio at 5 µM ([8]; liver microsomes, read-out: CLH): 0.5
AUC(0-inf) [9]: 405 ng·h/mL
AUC(0-inf) [10]: 643 ng·h/mL
Cmax [11]: 92 ng/mL
half-life [12]: 2.75 h
half-life [13]: 3.59 h
bioavailability [14]: 46%
clearance [15]: 113 mL/min/kg
Vd [16]: 18.6 L/kg
inhibition [22]: 48%
inhibition [23]: 88%
inhibition [24]: 23%
inhibition [25]: 24%
inhibition [26]: 26%
inhibition [27]: 15%
inhibition [28]: 20%
inhibition [29]: 14%
inhibition [30]: 90%
inhibition [31]: 89%
inhibition [32]: 81%
inhibition [33]: 73%
inhibition [34]: 71%
inhibition [35]: 68%
inhibition [36]: 54%
inhibition [37]: 51%
inhibition in vivo at 25 mg/kg (Mus musculus [38]): ≤ 64%
inhibition in vivo at 25 mg/kg (Mus musculus [20]; KG-1, po): 56%
concentration at 8 h [39]: 24000 nM
concentration at 24 h [40]: 7900 nM
concentration at 8 h [41]: 920 nM
concentration at 24 h [42]: 60 nM
fraction unbound [43]: 0.02
Activity [44]: < 10%
T/C (KG-1 [45]): 60%
T/C (KG-1 [46]): 56%
T/C (KG-1 [47]): 33%
Cmax [48]: 140 nM
Cmax [49]: 320 nM
Cmax [50]: 520 nM
